Results on 4 compounds are retold here after US4590063A, “Anticonvulsants” (Adria Laboratories, Inc., priority 1985, dated 1986).

The nature of one data set: in vivo. The settings on record: mouse; for LD50 at 24 h: oral gavage, mice, read-out: Acute (24 hr.) Toxicity Approximate LD50; for safety ratio (LD50/ED50): po, LD50 (24 hr., mice) divided by ED50 (supramaximal electroshock), read-out: Approximate Safety Ratio LD50/ED50. The procedure: (§1) Male albino ICR-swiss mice fasted for 5-6 hours and weighing 20-26 grams are used in all procedures. The compounds of the Examples 1 and 2 are dissolved in water and administered in dosages of 0.01 cc per gram body weight to groups of twelve mice via oral gavage at the milligrams per kilograms per body weight in the table below. One hour after administration of the compound, the mice are given a transcranal electroshock, 60 hertz, 25 milliamps of 0.2 second duration. This stimulus is approximately 3 times the current required to produce tonic flexion-extension convulsions in 100% of the control mice tested. The animals are then observed, and the number undergoing convulsion noted. When the ED50 is bracketed (at least one dose above and one dose below), an estimate of the ED50 is calculated. The acute LD50 is determined as follows: Groups of four mice each are given selected doses of the test compound and placed in plastic cages with food and water ad lib. Twenty-four hours later, the number of dead mice is noted. When the LD50 is bracketed (at least one dose above and one below) an estimate of the LD50 is calculated. The values for Valproic acid and Dilantin are included in the table for comparison.
(In general: The maximal electroshock test induces tonic seizures with an electrical stimulus.)

Data set [1] can be described thus: Solubility in water and ethyl alcohol. It counts as physicochemical. The settings on record: recrystallized product.
The test system of data set [2] is tonic flexion-extension convulsions. The experiment in a line: Supramaximal electroshock antagonism (suppression of convulsions induced in mice by transcranal electroshock). It counts as in vivo, Male albino ICR-swiss mice. Conditions: Mus musculus, oral gavage, 1 hour after administration, 60 hertz, 25 milliamps, 0.2 second, read-out: Supramaximal Electroshock Antagonism Approximate ED50. As to the method: These examples illustrate the use of the compounds described in Examples 1 and 2 in suppressing convulsions induced in mice by supramaxal shock.
as §1

For data set [3] the following is noted: treatment of epilepsy, known drug; cited from earlier work.

For `COc1cc(C(=O)NCCN(C)C)c(OC)c2ccccc12.Cl` [1,4-dimethoxy-N-(2-dimethylaminoethyl)-2-naphthalene carboxamide hydrochloride], in “in vivo”, the LD50 at 24 h is ~750 mg/kg and the safety ratio (LD50/ED50) was ~17. Also, in data set [1], the “solubility in ethyl alcohol” value was “sparingly soluble” and the solubility in water result was “sparingly soluble”. Further, the ED50 in data set [2] is ~45 mg/kg.

`O=C1NC(=O)C(c2ccccc2)(c2ccccc2)N1` [Dilantin, phenytoin, reference compound]: in data set [3], the “serious chronic side effects” value was “megaloblastic anemia and osteomalacia”. Besides, the LD50 at 24 h in “in vivo” was ~417 mg/kg. Further, the median effective dose (ED50) in data set [2] was ~13 mg/kg.

In the case of `CCCC(CCC)C(=O)O` [Valproic Acid, reference compound], the “dosage needed to be effective relative to toxic dosage” value in data set [3] is listed as “very close to those which are acutely toxic”. The LD50 at 24 h in the data set “in vivo” is ~1420 mg/kg. Also, the ED50 in data set [2] is ~600 mg/kg.

As for `COc1cc(C(=O)NCCCN(C)C)c(OC)c2ccccc12.Cl` [1,4-dimethoxy-N-(3-dimethylaminopropyl)-2-naphthalenecarboxamide hydrochloride], in the data set “in vivo”, the LD50 at 24 h is ~750 mg/kg and the safety ratio (LD50/ED50) was ~10. In data set [1], the “solubility in ethyl alcohol” value was “sparingly soluble” and the solubility in water entry is listed as “sparingly soluble”. Moreover, the ED50 in data set [2] is ~75 mg/kg.

In general, LD50 refers to the dose expected to kill half of the subjects tested. The ED50 is the dose at which the effect has come halfway, by size or by number of responders.
